Patent publication US20200270309A1, “MALEIMIDE GROUP-MODIFIED ANGIOGENESIS INHIBITOR HM-1 AND USE THEREOF” (NANJING ANJI BIOLOGICAL TECHNOLOGY CO., LTD, priority 2017, published 2020)
Where two headings read alike, the source gives them in different places. Peptide text beside a SMILES is read from it. * marks the point of attachment. X18 = O=C1C=CC(=O)N1CCOCCOCCOCCOCCOCCOCCCCCCCC(=O)*; Butanoyl(4-maleimido) = O=C1C=CC(=O)N1CCCC(=O)*; Propanoyl(3-maleimido) = O=C1C=CC(=O)N1CCC(=O)*; X26 = O=C1C=CC(=O)N1CCOCCOCCOCCOCCOCCCCC(=O)*; X27 = O=C1C=CC(=O)N1CCOCCOCCOCCOCCCCCC(=O)*; X17 = O=C1C=CC(=O)N1CCOCCOCCCCCCCC(=O)*; X35 = O=C1C=CC(=O)N1CCOCCOCCOCCOCC(=O)*; X78 = O=C1C=CC(=O)N1c1ccc(CCCC(=O)*)cc1; X31 = O=C1C=CC(=O)N1CCOCCOCCOCC(=O)*; X3 = O=C1C=CC(=O)N1CCOCCOCCCCC(=O)*

Assay: Half-lives and pharmacokinetic parameters of polypeptides vs HM-1
Settings: in vivo
[1] = read-out: T1/2β (half-life) (converted)

| Structure (SMILES) | AUC(0-inf) [ng·h/mL] | MRT inf [h] | clearance [mL/min/kg] | half-life (T1/2β (half-life)) [h] | AUC(0-inf) (read-out: AUC0-∞) [ng·h/mL] | clearance (read-out: CL (converted)) [mL/min/kg] | MRT inf (read-out: MRT0-∞) [h] | half-life [1] [h] |
| --- | --- | --- | --- | --- | --- | --- | --- | --- |
| C[C@H](NC(=O)CNC(=O)[C@H](CCCNC(=N)N)NC(=O)CCCc1ccc(N2C(=O)C=CC2=O)cc1)C(=O)N[C@@H](CC(=O)O)C(=O)N[C@@H](CCCNC(=N)N)C(=O)N[C@@H](C)C(=O)NCC(=O)NCC(=O)NCC(=O)NCC(=O)N[C@@H](CCCNC(=N)N)C(=O)NCC(=O)N[C@@H](CC(=O)O)C(=O)O [X39] (X78-RGADRAGGGGRGD-OH) | 32800 ± 7110 | 58.8 ± 13.1 | 0.508 | 40.73 ± 0.28 |  |  |  |  |
| C[C@H](NC(=O)CNC(=O)[C@H](CCCNC(=N)N)NC(=O)CCCCCCCOCCOCCOCCOCCOCCOCCN1C(=O)C=CC1=O)C(=O)N[C@@H](CC(=O)O)C(=O)N[C@@H](CCCNC(=N)N)C(=O)N[C@@H](C)C(=O)NCC(=O)NCC(=O)NCC(=O)NCC(=O)N[C@@H](CCCNC(=N)N)C(=O)NCC(=O)N[C@@H](CC(=O)O)C(=O)O [X90] (X18-RGADRAGGGGRGD-OH) | 27600 ± 8160 | 49.3 ± 11.5 | 0.605 | 34.18 ± 0.31 |  |  |  |  |
| C[C@H](NC(=O)CNC(=O)[C@H](CCCNC(=N)N)NC(=O)CCCCOCCOCCOCCOCCOCCN1C(=O)C=CC1=O)C(=O)N[C@@H](CC(=O)O)C(=O)N[C@@H](CCCNC(=N)N)C(=O)N[C@@H](C)C(=O)NCC(=O)NCC(=O)NCC(=O)NCC(=O)N[C@@H](CCCNC(=N)N)C(=O)NCC(=O)N[C@@H](CC(=O)O)C(=O)O [X80] (X26-RGADRAGGGGRGD-OH) | 34500 ± 7330 | 61.6 ± 11.7 | 0.483 | 42.72 ± 0.25 |  |  |  |  |
| C[C@H](NC(=O)CNC(=O)[C@H](CCCNC(=N)N)NC(=O)CCN1C(=O)C=CC1=O)C(=O)N[C@@H](CC(=O)O)C(=O)N[C@@H](CCCNC(=N)N)C(=O)N[C@@H](C)C(=O)N[C@@H](CCC(=O)O)C(=O)N[C@@H](C)C(=O)N[C@@H](C)C(=O)N[C@@H](C)C(=O)N[C@@H](CCCCN)C(=O)N[C@@H](CCCNC(=N)N)C(=O)NCC(=O)N[C@@H](CC(=O)O)C(=O)O [P11] ({Propanoyl(3-maleimido)}-RGADRAEAAAKRGD-OH) |  |  |  |  | 31600 ± 8230 | 0.528 | 56.5 ± 11.6 | 39.16 ± 0.31 |
| C[C@H](NC(=O)CNC(=O)[C@H](CCCNC(=N)N)NC(=O)CCCCOCCOCCN1C(=O)C=CC1=O)C(=O)N[C@@H](CC(=O)O)C(=O)N[C@@H](CCCNC(=N)N)C(=O)N[C@@H](C)C(=O)NCC(=O)NCC(=O)NCC(=O)NCC(=O)N[C@@H](CCCNC(=N)N)C(=O)NCC(=O)N[C@@H](CC(=O)O)C(=O)O [X59] (X3-RGADRAGGGGRGD-OH) | 30300 ± 7110 | 54.2 ± 9.93 | 0.553 | 37.55 ± 0.27 |  |  |  |  |
| C[C@H](NC(=O)CNC(=O)[C@H](CCCNC(=N)N)NC(=O)COCCOCCOCCOCCN1C(=O)C=CC1=O)C(=O)N[C@@H](CC(=O)O)C(=O)N[C@@H](CCCNC(=N)N)C(=O)N[C@@H](C)C(=O)NCC(=O)NCC(=O)NCC(=O)NCC(=O)N[C@@H](CCCNC(=N)N)C(=O)NCC(=O)N[C@@H](CC(=O)O)C(=O)O [X70] (X35-RGADRAGGGGRGD-OH) | 28000 ± 8160 | 50.2 ± 10.5 | 0.595 | 34.76 ± 0.26 |  |  |  |  |
| C[C@H](NC(=O)CNC(=O)[C@H](CCCNC(=N)N)NC(=O)CCCCCCCOCCOCCN1C(=O)C=CC1=O)C(=O)N[C@@H](CC(=O)O)C(=O)N[C@@H](CCCNC(=N)N)C(=O)N[C@@H](C)C(=O)NCC(=O)NCC(=O)NCC(=O)NCC(=O)N[C@@H](CCCNC(=N)N)C(=O)NCC(=O)N[C@@H](CC(=O)O)C(=O)O [X62] (X17-RGADRAGGGGRGD-OH) | 26700 ± 8160 | 47.8 ± 12.3 | 0.625 | 33.09 ± 0.28 |  |  |  |  |
| C[C@H](NC(=O)CNC(=O)[C@H](CCCNC(=N)N)NC(=O)CCCN1C(=O)C=CC1=O)C(=O)N[C@@H](CC(=O)O)C(=O)N[C@@H](CCCNC(=N)N)C(=O)N[C@@H](C)C(=O)NCC(=O)NCC(=O)NCC(=O)NCC(=O)N[C@@H](CCCNC(=N)N)C(=O)NCC(=O)N[C@@H](CC(=O)O)C(=O)O [X3] ({Butanoyl(4-maleimido)}-RGADRAGGGGRGD-OH) |  |  |  |  | 33800 ± 7660 | 0.493 | 60.5 ± 13.2 | 41.92 ± 0.32 |
| C[C@H](NC(=O)CNC(=O)[C@H](CCCNC(=N)N)NC(=O)COCCOCCOCCN1C(=O)C=CC1=O)C(=O)N[C@@H](CC(=O)O)C(=O)N[C@@H](CCCNC(=N)N)C(=O)N[C@@H](C)C(=O)NCC(=O)NCC(=O)NCC(=O)NCC(=O)N[C@@H](CCCNC(=N)N)C(=O)NCC(=O)N[C@@H](CC(=O)O)C(=O)O [X63] (X31-RGADRAGGGGRGD-OH) | 32300 ± 7650 | 57.7 ± 13.3 | 0.517 | 39.97 ± 0.31 |  |  |  |  |
| C[C@H](NC(=O)CNC(=O)[C@H](CCCNC(=N)N)NC(=O)CCCCCOCCOCCOCCOCCN1C(=O)C=CC1=O)C(=O)N[C@@H](CC(=O)O)C(=O)N[C@@H](CCCNC(=N)N)C(=O)N[C@@H](C)C(=O)NCC(=O)NCC(=O)NCC(=O)NCC(=O)N[C@@H](CCCNC(=N)N)C(=O)NCC(=O)N[C@@H](CC(=O)O)C(=O)O [X74] (X27-RGADRAGGGGRGD-OH) | 33700 ± 7090 | 60.4 ± 13.7 | 0.495 | 41.82 ± 0.29 |  |  |  |  |
